Patent publication US20080004253A1, “Thiazolopyrimidine modulators of TRPV1” (priority 2006, published 2008)

Assays:
[1] = target: T1, human TRPV1 (Homo sapiens, UniProt Q8NER1); assay: Functional assay: block of capsaicin-induced Ca2+ influx, human assay (hTRPV1/HEK293, FLIPR); type: cell-based; conditions: hTRPV1/HEK293 cells, 150 nM capsaicin challenge, Fluo-3 fluorescence; mean; > value = solubility limit in assay medium
T1 construct: expressed in transfected cells; host or cells: HEK293 (hTRPV1/HEK293), zeocin selection
T1 sequence (Q8NER1 whole entry): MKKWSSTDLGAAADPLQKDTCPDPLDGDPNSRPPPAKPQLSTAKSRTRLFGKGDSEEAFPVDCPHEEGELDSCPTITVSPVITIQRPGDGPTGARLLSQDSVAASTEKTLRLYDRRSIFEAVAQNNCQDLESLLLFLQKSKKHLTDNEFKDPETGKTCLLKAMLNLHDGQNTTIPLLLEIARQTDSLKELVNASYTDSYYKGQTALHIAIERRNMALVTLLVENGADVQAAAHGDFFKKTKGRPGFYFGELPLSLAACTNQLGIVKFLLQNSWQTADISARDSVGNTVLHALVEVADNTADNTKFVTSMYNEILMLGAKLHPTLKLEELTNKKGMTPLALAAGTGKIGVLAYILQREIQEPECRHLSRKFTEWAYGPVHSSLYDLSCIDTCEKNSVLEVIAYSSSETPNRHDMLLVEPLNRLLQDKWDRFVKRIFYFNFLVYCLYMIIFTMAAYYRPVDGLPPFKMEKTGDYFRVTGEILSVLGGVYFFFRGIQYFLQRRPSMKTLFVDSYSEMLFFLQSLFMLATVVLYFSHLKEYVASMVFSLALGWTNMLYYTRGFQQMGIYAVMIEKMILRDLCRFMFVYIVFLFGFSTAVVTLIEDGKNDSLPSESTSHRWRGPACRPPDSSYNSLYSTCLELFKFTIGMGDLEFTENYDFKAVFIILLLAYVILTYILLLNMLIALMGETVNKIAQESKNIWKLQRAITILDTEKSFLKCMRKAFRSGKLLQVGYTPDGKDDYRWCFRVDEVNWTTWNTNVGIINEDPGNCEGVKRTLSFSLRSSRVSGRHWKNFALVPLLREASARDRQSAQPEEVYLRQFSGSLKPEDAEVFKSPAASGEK
Outline: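 HEK293 cells stably expressing human TRPV1, fluo3-loaded, preincubated 30 min with compound (serial 3-fold dilutions from 10 μM, duplicate) in 20 μM Ca2+ buffer. Capsaicin response taken as fluo3 fluorescence change before vs 100 s after agonist; IC50 by non-linear regression, mean values; free base or TFA salt.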

[2] = target: T2, rat TRPV1 (Rattus norvegicus, UniProt O35433); assay: Functional assay: block of capsaicin-induced Ca2+ influx, rat assay (rTRPV1/HEK293, FLIPR); type: cell-based; conditions: rTRPV1/HEK293 cells, capsaicin challenge, Fluo-3 fluorescence; mean; > value = solubility limit in assay medium
T2 construct: expressed in transfected cells; host or cells: HEK293 (rTRPV1/HEK293), geneticin selection
T2 sequence (O35433 whole entry): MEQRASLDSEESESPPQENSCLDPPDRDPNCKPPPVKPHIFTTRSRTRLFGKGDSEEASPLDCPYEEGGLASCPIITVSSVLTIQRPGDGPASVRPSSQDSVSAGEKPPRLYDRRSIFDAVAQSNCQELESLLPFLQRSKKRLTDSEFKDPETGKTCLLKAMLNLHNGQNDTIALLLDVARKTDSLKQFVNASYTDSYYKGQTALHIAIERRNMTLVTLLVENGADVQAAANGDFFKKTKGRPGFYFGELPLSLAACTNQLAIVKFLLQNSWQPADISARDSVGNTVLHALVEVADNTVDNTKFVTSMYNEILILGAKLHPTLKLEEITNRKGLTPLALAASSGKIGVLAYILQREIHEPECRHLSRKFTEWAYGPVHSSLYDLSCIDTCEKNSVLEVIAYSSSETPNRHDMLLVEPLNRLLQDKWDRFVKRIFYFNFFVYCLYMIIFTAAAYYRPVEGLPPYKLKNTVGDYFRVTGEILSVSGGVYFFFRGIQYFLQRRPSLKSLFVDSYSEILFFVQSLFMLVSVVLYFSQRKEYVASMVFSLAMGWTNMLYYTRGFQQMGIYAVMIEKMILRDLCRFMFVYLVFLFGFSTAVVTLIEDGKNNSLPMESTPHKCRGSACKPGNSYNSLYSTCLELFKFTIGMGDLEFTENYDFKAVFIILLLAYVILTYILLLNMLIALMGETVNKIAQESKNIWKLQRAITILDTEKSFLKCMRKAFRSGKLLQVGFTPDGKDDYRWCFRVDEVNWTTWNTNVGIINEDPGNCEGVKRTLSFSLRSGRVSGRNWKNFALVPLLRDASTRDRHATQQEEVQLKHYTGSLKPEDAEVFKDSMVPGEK
Outline: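 Compounds, as free base or TFA salt, tested from 10 μM in three-fold steps on rTRPV1-transfected HEK293 cells, with 30 min preincubation in low-calcium (20 μM) buffer. Capsaicin-evoked Ca2+ influx measured by FLIPR fluo3 signal before and 100 s after addition. Averaged IC50 from non-linear fits.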

Row | Compound | IC50 [1] [nM] | IC50 [2] [nM]
1 | Cc1nc(Nc2ccc(C(F)(F)F)cc2)c2nc(Nc3c(Cl)cccc3Cl)sc2n1 [Example 5, N^2-(2,6-Dichloro-phenyl)-5-methyl-N^7-(4-trifluoromethyl-phenyl)-thiazolo[5,4-d]pyrimidine-2,7-diamine] | 3 | 2
2 | CS(=O)(=O)c1ccccc1Nc1nc2c(Nc3ccc(C(F)(F)F)nc3)ncnc2s1 [Example 199, N^2-(2-Methanesulfonyl-phenyl)-N^7-(6-trifluoromethyl-pyridin-3-yl)-thiazolo[5,4-d]pyrimidine-2,7-diamine] | 2150 | 1080
3 | CC(C)(C(=O)O)c1ccc(Nc2ncnc3sc(Nc4c(Cl)cccc4Cl)nc23)cc1 [Example 230, 2-[4-({2-[(2,6-Dichlorophenyl)amino][1,3]thiazolo[5,4-d]pyrimidin-7-yl}amino)phenyl]-2-methylpropanoic acid] | 43 | 2
4 | CS(=O)(=O)c1ccc(Nc2ncnc3sc(Nc4c(Cl)cc(C#N)cc4Cl)nc23)cc1 [Example 236, 3,5-Dichloro-4-[7-(4-methanesulfonyl-phenylamino)-thiazolo[5,4-d]pyrimidin-2-ylamino]-benzonitrile] | 115 | 38
5 | Cc1cccc(C)c1Nc1nc2c(Nc3ccc(C(F)(F)F)cc3)ncnc2s1 [Example 10, N^2-(2,6-Dimethyl-phenyl)-N^7-(4-trifluoromethyl-phenyl)thiazolo[5,4,d]pyrimidine-2,7-diamine] | 26 | 6
6 | CS(=O)(=O)c1nc(Nc2ccc(C(F)(F)F)cc2)c2nc(Nc3c(Cl)cccc3Cl)sc2n1 [Example 53, N^2-(2,6-Dichloro-phenyl)-5-methanesulfonyl-N^7-(4-trifluoromethyl-phenyl)-thiazolo[5,4-d]pyrimidine-2,7-diamine] | 196 | 93
7 | Cc1cccc(C)c1Nc1nc2c(Nc3ccc(C(C)(C)C)cc3)ncnc2s1 [Example 12, N^7-(4-tert-Butyl-phenyl)-N^2-(2,6-dimethyl-phenyl)-thiazolo[5,4-d]pyrimidine-2,7-diamine] | 30 | 4
8 | NCc1cc(Cl)c(Nc2nc3c(Nc4ccc(C(F)(F)F)cc4)ncnc3s2)c(Cl)c1 [Example 240, N^2-(4-Aminomethyl-2,6-dichloro-phenyl)-N^7-(4-trifluoromethyl-phenyl)-thiazolo[5,4-d]pyrimidine-2,7-diamine] | 154 | 61

The remaining compounds from weak to strong by IC50 [1], led by results:

Row | IC50 [1] [nM] | IC50 [2] [nM] | Compound
9 | 290 | 110 | CC(C)(O)CNc1nc(Nc2ccc(C(F)(F)F)cc2)c2nc(Nc3c(Cl)cccc3Cl)sc2n1 [Example 251, 1-[2-(2,6-Dichloro-phenylamino)-7-(4-trifluoromethyl-phenylamino)-thiazolo[5,4-d]pyrimidin-5-ylamino]-2-methyl-propan-2-ol]
10 | 133 | 125 | COC[C@H]1CCCN1c1nc(Nc2ccc(C(F)(F)F)cc2)c2nc(Nc3c(Cl)cccc3Cl)sc2n1 [Example 194, (2R)-N^2-(2,6-Dichloro-phenyl)-5-(2-methoxymethyl-pyrrolidin-1-yl)-N^7-(4-trifluoromethyl-phenyl)-thiazolo[5,4-d]pyrimidine-2,7-diamine]
11 | 36 | 56 | Cc1cccc(C)c1Nc1nc2c(Nc3ccc(SC(C)C)cc3)ncnc2s1 [Example 112, N^2-(2,6-Dimethyl-phenyl)-NT-(4-isopropylsulfanyl-phenyl)-thiazolo[5,4-d]pyrimidine-2,7-diamine]
